One data set has as its system BACE1. Details: method as in PMID 24291393. The note with it: cited from earlier work.
Data set [1] has as its system AlCl3-induced AD mouse model. Particulars: cited from earlier work.
In the next data set the target is AChE (Electrophorus electricus, UniProt O42275). Particulars: Dixon and Lineweaver–Burk plots.
Details of data set [2]: method as in doi:10.1016/j.arabjc.2017.08.002. The note with it: chemical scavenging and cellular antioxidant ability among flavonoids of S. baicalensis; cited from earlier work.
The subject of a further data set is Tg2576 mice. Further details: method as in PMID 23686791. Particulars: 10 mg/kg; cited from earlier work.
For data set [3] the following is noted: humans, 2.8 mg single dose; cited from earlier work.
For the next data set, the system named is APP/PS1 mice. Particulars: 80 mg/kg; cited from earlier work.
Another data set addresses T1, human recombinant TACE (Homo sapiens, UniProt P78536).
T1 construct: purchased R&D Systems (Minneapolis, MN, USA)
The data set can be described thus: TACE fluorometric assay. The format is biochemical. The method, then:
A human recombinant TACE (0.1 ppm in 25 mM Tris buffer), the substrate (APP peptide […] using EDANS/DABCYL), and baicalein were dissolved in an assay buffer and then combined and incubated for 60 min in the dark at 25 °C.

The target in a further data set is T2, chymotrypsin (Bos taurus, UniProt P00766).
T2 construct: purchased Sigma-Aldrich (St. Louis, MO, USA)
The data set can be described thus: Chymotrypsin colorimetric assay. The format is biochemical. On the procedure: (§1) The colorimetric assays of AChE, trypsin, chymotrypsin, and elastase were carried out using acetylthiocholine iodide, […], and N-succinyl-Ala-Ala-Ala-pNA as substrates, respectively. The hydrolysis of AChE was monitored according to the formation of yellow 5-thio-2-nitrobenzoate anions at 405 nm for 15 min, which were produced by the reaction of DTNB with thiocholine released from ACh. All reactions were performed in 96-well plates in triplicate and recorded using a microplate spectrophotometer.
(§2) For trypsin, chymotrypsin, and elastase assays, enzyme, Tris-HCl buffer (0.05 M, in 0.02 M CaCl2, pH 8.2), and baicalein were incubated for 10 min at 25 °C; then, substrate was added for 30 min at 37 °C. The absorbance was recorded at 410 nm. The inhibition ratio was obtained using the following equation:Inhibition (%) = {[1 − (A − B)]/control} × 100 where A was the absorbance of the control (enzyme, assay buffer, and substrate) after 60 min of incubation, and B was the absorbance of tested sample (assay buffer and sample solution) after 60 min of incubation.

For data set [4] the following is noted: cited from earlier work.
The subject of another data set is trypsin. Description: Trypsin colorimetric assay. It counts as biochemical. The note with it: for Inhibitory activity against Trypsin: mean ± SD. On the procedure:
as §1, §2

For data set [5] the following is noted: rat, oral S. baicalensis extract 30 mg/kg; cited from earlier work.
Another data set concerns the target T3, elastase (Sus scrofa, UniProt P00772).
T3 construct: purchased Sigma-Aldrich (St. Louis, MO, USA)
The data set can be described thus: Elastase colorimetric assay. The format is biochemical. On the procedure: as §1, §2

The source of these data is article PMC6893645, “Baicalein as a Potential Inhibitor against BACE1 and AChE: Mechanistic Comprehension through In Vitro and Computational Approaches” (Nutrients, 2019).

The term IC50 denotes the concentration that inhibits the measured activity by half.

T1 sequence (P78536 215-824): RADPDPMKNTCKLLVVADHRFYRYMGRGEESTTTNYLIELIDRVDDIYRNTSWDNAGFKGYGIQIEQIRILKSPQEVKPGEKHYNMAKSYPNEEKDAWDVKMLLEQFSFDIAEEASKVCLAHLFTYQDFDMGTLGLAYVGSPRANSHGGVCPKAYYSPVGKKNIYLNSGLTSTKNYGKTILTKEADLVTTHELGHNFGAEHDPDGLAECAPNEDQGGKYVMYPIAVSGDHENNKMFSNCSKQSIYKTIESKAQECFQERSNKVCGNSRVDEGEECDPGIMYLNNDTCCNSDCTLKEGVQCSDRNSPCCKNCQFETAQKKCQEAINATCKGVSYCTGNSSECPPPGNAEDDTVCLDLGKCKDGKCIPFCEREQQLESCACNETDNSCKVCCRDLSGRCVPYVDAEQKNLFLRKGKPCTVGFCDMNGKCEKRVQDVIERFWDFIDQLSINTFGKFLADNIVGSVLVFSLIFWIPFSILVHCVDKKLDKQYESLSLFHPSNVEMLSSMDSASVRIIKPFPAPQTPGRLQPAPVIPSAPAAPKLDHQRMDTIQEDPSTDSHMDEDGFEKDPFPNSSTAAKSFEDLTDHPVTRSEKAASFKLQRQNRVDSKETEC
T3 sequence (P00772 27-266): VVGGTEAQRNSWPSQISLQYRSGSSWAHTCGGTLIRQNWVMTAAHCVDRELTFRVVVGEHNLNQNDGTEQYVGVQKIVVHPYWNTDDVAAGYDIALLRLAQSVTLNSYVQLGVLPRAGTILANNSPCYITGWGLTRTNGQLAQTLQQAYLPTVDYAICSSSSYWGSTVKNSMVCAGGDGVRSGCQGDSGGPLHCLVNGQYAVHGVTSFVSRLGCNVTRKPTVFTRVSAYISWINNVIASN
AChE, sequence (O42275 24-633): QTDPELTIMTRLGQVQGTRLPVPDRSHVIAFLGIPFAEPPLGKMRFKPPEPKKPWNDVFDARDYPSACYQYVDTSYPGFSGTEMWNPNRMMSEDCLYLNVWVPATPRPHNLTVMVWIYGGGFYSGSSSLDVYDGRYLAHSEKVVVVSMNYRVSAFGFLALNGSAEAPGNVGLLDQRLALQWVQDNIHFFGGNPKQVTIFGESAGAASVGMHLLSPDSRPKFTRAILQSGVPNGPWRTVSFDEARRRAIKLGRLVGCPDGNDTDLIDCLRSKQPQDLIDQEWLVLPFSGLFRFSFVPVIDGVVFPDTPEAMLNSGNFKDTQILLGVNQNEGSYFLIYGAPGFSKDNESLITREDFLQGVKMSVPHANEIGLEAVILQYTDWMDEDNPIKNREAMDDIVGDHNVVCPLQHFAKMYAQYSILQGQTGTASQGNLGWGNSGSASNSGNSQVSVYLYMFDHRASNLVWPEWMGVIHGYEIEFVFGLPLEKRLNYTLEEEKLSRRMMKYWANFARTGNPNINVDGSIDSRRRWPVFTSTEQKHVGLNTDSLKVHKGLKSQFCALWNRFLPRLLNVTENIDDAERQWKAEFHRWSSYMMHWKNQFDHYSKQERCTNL
Description for AChE: The colorimetric assays of AChE, trypsin, chymotrypsin, and elastase were carried out using acetylthiocholine iodide, N-benzoyl-L-Tyr-pNA, N-benzoyl-L-Arg-pNA, and N-succinyl-Ala-Ala-Ala-pNA as substrates, respectively. […] All reactions were performed in 96-well plates in triplicate and recorded using a microplate spectrophotometer.
The inhibitory constant (Ki) was obtained by interpretation of the Dixon plot, and maximum reaction velocity (Vmax) and Michaelis–Menten constant (Km) values were determined by a Lineweaver–Burk plot, using the initial velocities obtained over a different substrate concentration ranges.

Regarding `O=c1cc(-c2ccc(O)cc2)oc2cc(O)cc(O)c12` [Apigenin, 4′,5,7-trihydroxyflavone], the IC50 with BACE1 was over 100 µM.

Regarding `O=c1cc(-c2ccccc2)oc2cc(O)c(O)c(O)c12` [Baicalein, 5,6,7-trihydroxyflavone], the Behavioral dysfunction entry in [1] is on record as “improved”. Besides, the “AChE Inhibition Type” value at AChE is on record as “Competitive”. Moreover, the Antioxidant ability entry in [2] is given as “most powerful antioxidant effect”. The Cognitive performance result in the data set on Tg2576 mice is given as “significantly improves”. Moreover, the “Toxicity after single-dose administration” value in data set [3] is given as “no signs of toxicity”. In the data set with APP/PS1 mice, the “LOX and GSK3β activity” value was “inhibits LOX and GSK3β activity”. For the same compound, the inhibition at 50 µM at human recombinant TACE (baicalein 50 μM, mean ± SD, read-out: Inhibitory activity against TACE) is 8.31 ± 0.89%; at chymotrypsin (baicalein 50 μM, mean ± SD, read-out: Inhibitory activity against Chymotrypsin), 8.42 ± 0.76%; at elastase (baicalein 50 μM, mean ± SD, read-out: Inhibitory activity against Elastase), 10.3 ± 1.04%. For the same compound, the inhibition at 100 µM was 9.45 ± 0.71% at human recombinant TACE (baicalein 100 μM, mean ± SD, read-out: Inhibitory activity against TACE); 4.48 ± 0.76% at chymotrypsin (baicalein 100 μM, mean ± SD, read-out: Inhibitory activity against Chymotrypsin); 9 ± 0.45% on elastase (baicalein 100 μM, mean ± SD, read-out: Inhibitory activity against Elastase). Besides, the “Inhibitory activity against TACE (in words)” value on human recombinant TACE (up to 100 µM) is reported as “no significant inhibitory activity”. For the same compound, on chymotrypsin (up to 100 µM), the “Inhibitory activity against chymotrypsin (in words)” value is listed as “no significant inhibitory activity”. Moreover, the “Time to cross the BBB after administration” value in data set [4] (30 mg/kg) was “about half an hour”. Also, in data set [4] (rat, 30 and 60 mg/kg through the femoral vein), the BBB penetration result was “rapidly penetrated the BBB”. For the same compound, the “Inhibitory activity against Trypsin” value is 3.40 ± 0.76% in the data set with trypsin (baicalein 50 μM) and −6.95 ± 0.87% with trypsin (baicalein 100 μM). The “Inhibitory activity against trypsin (in words)” value in the data set with trypsin (up to 100 µM) is on record as “no significant inhibitory activity”. Moreover, the “Brain-to-plasma ratio compared with baicalin” value in data set [5] is recorded as “twenty times higher”. Further, the “Inhibitory activity against elastase (in words)” value at elastase (up to 100 µM) is given as “no significant inhibitory activity”.

Regarding `O=c1cc(-c2ccccc2)oc2cc(O)cc(O)c12` [Chrysin, reference compound], the Antioxidant ability entry in [2] is reported as “much weaker antioxidant ability”.
